Measured values from patent US20250115926A1, “DEREGULATED DHS AND TYRA ENZYMES OF GRASSES ENABLE EFFICIENT PRODUCTION OF BOTH TYROSINE AND PHENYLALANINE” (Wisconsin Alumni Research Foundation, priority 2023, published 2025).
Blank lines part the entries; values can stand above or below the compound they belong to.

Experiments:
[1] = target: Brachypodium distachyon BdDHS1a, SEQ ID NO: 1, recombinant (Brachypodium distachyon, UniProt I1GSB3); assay: DHS activity: kinetics and effector inhibition
Description: (§1) To examine their functional properties, the recombinant DHS enzymes of Brachypodium were produced and characterized in vitro.
(§2) As recent studies have shown that plant DHS enzymes are feedback-inhibited by multiple effector molecules^15, 16, we tested the effect of AAAs and another 14 related metabolites, including various intermediates of the shikimate pathway and the pathways downstream of AAAs, on Brachypodium DHS enzymes.
(§3) The DHS assay for UHPLC-MS quantification was set up using the same settings as described in the previous paragraph for the UV-based DHS assay, which guaranteed at least 10 minutes of reaction linearity. After a 10-minute incubation, 20 μL of the reactions (out of a total volume of 50 μL) were mixed into 80 μL of methanol, vortexed and transferred to vials for injection. Analysis of DAHP by UHPLC-MS was conducted using the same chromatographic settings as described for the UHPLC-MS analysis of soluble metabolites and compared with an authentic DAHP standard (Sta. Cruz biotechnology, cat. no. sc-216432).

[2] = target: Brachypodium distachyon BdDHS1b, SEQ ID NO: 3, recombinant (Brachypodium distachyon, UniProt I1H4W3); assay: DHS activity: kinetics and effector inhibition; type: biochemical
Chain of Brachypodium distachyon BdDHS1b, SEQ ID NO: 3, recombinant (I1H4W3 37-542): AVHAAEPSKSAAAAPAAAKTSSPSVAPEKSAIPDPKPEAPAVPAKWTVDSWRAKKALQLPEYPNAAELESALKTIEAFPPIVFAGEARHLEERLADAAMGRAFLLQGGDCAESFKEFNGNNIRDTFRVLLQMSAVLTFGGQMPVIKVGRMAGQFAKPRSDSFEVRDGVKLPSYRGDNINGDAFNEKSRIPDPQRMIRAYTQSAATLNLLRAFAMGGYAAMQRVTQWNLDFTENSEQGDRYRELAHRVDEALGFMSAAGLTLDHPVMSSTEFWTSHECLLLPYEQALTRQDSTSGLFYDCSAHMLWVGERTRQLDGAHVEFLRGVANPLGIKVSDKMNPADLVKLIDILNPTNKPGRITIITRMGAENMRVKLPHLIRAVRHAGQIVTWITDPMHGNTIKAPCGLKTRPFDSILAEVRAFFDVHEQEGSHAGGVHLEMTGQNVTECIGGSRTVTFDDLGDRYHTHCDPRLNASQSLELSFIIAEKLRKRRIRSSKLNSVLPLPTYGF
Description: as §1, §2, §3

[3] = target: Brachypodium distachyon BdDHS2, SEQ ID NO: 5, recombinant (Brachypodium distachyon, UniProt I1I809); assay: DHS activity: kinetics and effector inhibition; type: biochemical
Chain of Brachypodium distachyon BdDHS2, SEQ ID NO: 5, recombinant (I1I809 31-503): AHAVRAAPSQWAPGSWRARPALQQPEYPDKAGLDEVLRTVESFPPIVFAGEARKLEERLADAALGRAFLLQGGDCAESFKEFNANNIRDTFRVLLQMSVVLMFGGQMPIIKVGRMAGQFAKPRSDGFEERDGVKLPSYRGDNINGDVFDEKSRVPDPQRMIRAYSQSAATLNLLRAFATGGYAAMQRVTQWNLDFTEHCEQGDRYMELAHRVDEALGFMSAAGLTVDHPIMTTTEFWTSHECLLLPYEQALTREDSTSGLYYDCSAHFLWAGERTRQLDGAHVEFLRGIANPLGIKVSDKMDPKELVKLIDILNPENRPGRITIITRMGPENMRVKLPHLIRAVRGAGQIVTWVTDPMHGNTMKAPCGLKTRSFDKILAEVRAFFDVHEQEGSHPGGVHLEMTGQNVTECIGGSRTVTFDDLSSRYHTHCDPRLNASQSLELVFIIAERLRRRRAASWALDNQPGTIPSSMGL
Description: as §1, §2, §3

[4] = tested on: Nicotiana benthamiana leaves; assay: Transient expression of DHS1b orthologs in Nicotiana benthamiana leaves, LCMS (FIG. 21); type: in vivo; conditions: 72 hours post-infiltration; for effect on levels of aromatic amino acids and their precursor molecules: vs YPet
Description: To determine whether the grass DHS1b gene encodes a deregulated DHS in other grass species besides Brachypodium distachyon, BdDHS1b orthologs from Oryza sativa (OsDHS1b) and Sorghum bicolor (SbDHS1b) were cloned into the Golden Gate plant expression vector pICH47822 under control of the RuBisCO small subunit 3B promoter from Arabidopsis thaliana.^52 A 3× human influenza hemagglutinin tag was fused in frame to the C-terminus of the DHS genes to confirm the production of heterologous DHS protein.
Agrobacterium tumefaciens (strain GV3101) clones transformed with the OsDHS1b and SbDHS1b plant expression constructs were infiltrated into the leaves of Nicotiana benthamiana side-by-side with Agrobacterium clones expressing BdDHS1a, BdDHS1b, and the fluorescent protein YPet (negative control). The levels of phenylalanine, tyrosine, tryptophan, and three of their biosynthetic intermediates (shikimate, prephenate, and arogenate) were determined at 72 hours post-infiltration by liquid chromatography coupled to mass spectrometry (LCMS). […] On average, expression of BdDHS1b or OsDHS1b increased phenylalanine, tyrosine, and shikimate levels by 5 to 20-times compared to the YPet negative control (FIG. 21), whereas prephenate and arogenate rose to ˜100-times the control (FIG. 21). […] Based on these findings, BdDHS1b and OsDHS1b, but not SbDHS1b, encode DHS enzymes that can boost the accumulation of aromatic amino acids in planta upon heterologous expression.

[5] = tested on: grass DHS enzymes; assay: DHS activity: effector inhibition; type: biochemical; conditions: 0.5 mM (FIGS. 4, 15, 17)
Description: as §2, §3

[6] = tested on: recombinant Sorghum DHS enzymes; assay: DHS activity: effector inhibition; type: biochemical, Sorghum bicolor; conditions: 0.5 mM (FIG. 17)
Description: (§4) In contrast, BdDHS1b was not inhibited by arogenate even up to 2.5 mM. In fact, DHS1b activity increased in the presence of high concentrations of arogenate (FIG. 4F), likely due to high concentrations of contaminant NaCl present in the arogenate preparation (FIG. 16). Under acidic conditions, arogenate is known to undergo a spontaneous dehydration and decarboxylation into […]. […] Like in Brachypodium DHS enzymes, 0.5 mM arogenate inhibited SbDHS1a and SbDHS2 at ˜50% and ˜40%, respectively, but had no effect on SbDHS1b.

[7] = DHS inhibition by arogenate; type: biochemical; conditions: FIG. 18
Description: as §3

[8] = DHS inhibition by tryptophan; type: biochemical; conditions: FIG. 18
Description: as §3

[9] = DHS activity with combinations of effectors; type: biochemical; conditions: 0.15 mM each effector (FIG. 19)
Description: DHS effector molecules can have synergistic effects when combined in vitro^51. To explore this possibility, we tested the impact of different combinations of tryptophan, tyrosine, arogenate and chorismate, at 0.15 mM each, on the activity of Brachypodium DHS enzymes.

[10] = tested on: Nicotiana benthamiana leaves; assay: Transient expression of Brachypodium DHS in Nicotiana benthamiana leaves (AtRbcS3B promoter), UHPLC-MS; type: in vivo; conditions: three days after transient expression
Description: Agrobacterium tumefaciens strain GV3101 transformed with the plant expression constructs were grown at 28° C. for 24 to 36 hours in 10 mL of LB liquid media containing the corresponding antibiotics. The saturated cultures were spun down at 3,000 g for 5 minutes at room temperature and washed twice with 3 mL of induction media (IM; 10 mM MES [2-(N-morpholino) ethanesulfonic acid] buffer pH 5.6, 0.5% glucose, 2 mM NaH2PO4, 20 mM NH4Cl, 1 mM MgSO4, 2 mM KCl, 0.1 mM CaCl2), 0.01 mM FeSO4, and 0.2 mM acetosyringone). After washing, bacteria cultures were incubated in IM for 2 to 3 hours at room temperature in the dark, pelleted at 3000 g for 5 minutes, and resuspended into 3 mL of 10 mM MES buffer pH 5.6 with 0.2 mM acetosyringone. OD600nm was adjusted to a final density of 0.25 units for pAGM4673::TyrA (FIG. 3F) and pICH47822::DHS (FIG. 5A) infiltration, or 0.5 units for pAGM4673::TyrA-DHS co-expression constructs (FIG. 5B) using 10 mM MES buffer pH 5.6 with 0.2 mM acetosyringone. For infiltration of pICH47822::DHS constructs, the Agrobacterium suspensions were adjusted to OD600nm=0.5 and mixed with an equal volume of a suspension of an Agrobacterium clone transformed with pICH4780::p19 under control of the Arabidopsis ubiquitin ligase promoter adjusted to OD600nm=0.5, resulting in a final mixture of 0.25 OD600nm units for each construct. […] Nicotiana benthamiana plants of around 4-weeks-old were infiltrated close to the end of the light period into four different spots per plant, distributed into two leaves at two infiltrations per leaf, with each individual spot corresponding with a different construct/treatment. In total, each construct was infiltrated as 5 or 6 independent replicates into different plants following a randomized pattern. Samples consisting of the infiltrated leaf limbs, without the main veins, were harvested at ˜72 hours post infiltration and subjected to HPLC or UHPLC-MS analysis (see details below).
Around 30-40 mg of pulverized frozen plant tissue were resuspended into 400 μL of chloroform:methanol (1:2) for ˜1 hour with regular vortexing, followed by centrifugation at 20,000 g for 5 minutes at room temperature. The whole supernatant was transferred to a fresh tube, mixed with 125 μL of chloroform, 300 μL of water, and spun down at 15,000 g for 5 minutes for phase separation. The upper, aqueous phase was recovered and dried down for 4 hours to overnight in a speed-vac at 40° C. The dried pellets were resuspended into 100 μL of methanol 80%, spun down at 20,000 g for 5 minutes, and the supernatant transferred to vials for injection. All reagents used for the extraction were UHPLC-MS grade.
Aromatic amino acids and shikimate were detected using a Vanquish Horizon Binary UHPLC (Thermo Scientific) coupled to a Q Exactive mass spectrometer (Thermo Scientific). Two microliters of the sample were analyzed using a InfinityLab Poroshell 120 HILIC-Z column (150×2.1 mm, 2.7-μm particle size; Agilent) in a gradient of 5 mM ammonium acetate/0.2% acetic acid buffer in water (solvent A) and 5 mM ammonium acetate/0.2% acetic acid buffer in 95% acetonitrile (solvent B) at a flow rate of 0.45 mL/min and column temperature of 40° C. The phase B gradient was: 0-2 min, 94%; 2-9 min, 94-88%; 9-19 min, 88-71%; 19-20 min, 71-20%, 20-21.5 min, 20%; 21.5-22 min, 20-94%; 22-25 min, 94%. All chemicals used to prepare the mobile phases were LC-MS grade. Full MS spectra were recorded between 2 and 19 minutes using full scan in negative mode, under the following parameters: sheath gas flow rate, 55; auxiliary gas flow rate, 20; sweep gas flow rate, 2; spray voltage, 3 kV; capillary temperature, 400° C.; S-lens RF level, 50; resolution, 70,000; AGC target 3×10^6, maximum scan time 100 ms; scan range 70-1050 m/z. Spectral data were integrated manually using Xcalibur 3.0. For ^13C labeled plant samples, ^13C-isotopologues were detected based on a mass increase of 1.00335 atomic mass units for each ^13C atom. […]

[11] = target: T1, Sorghum bicolor SbDHS2, SEQ ID NO: 13, recombinant (Sorghum bicolor, UniProt C5YJQ4); assay: DHS activity: effector inhibition; type: biochemical; conditions: effector 0.5 mM
T1 construct: pET28a (NdeI/BamHI), E. coli KRX
T1 sequence (C5YJQ4 42-508): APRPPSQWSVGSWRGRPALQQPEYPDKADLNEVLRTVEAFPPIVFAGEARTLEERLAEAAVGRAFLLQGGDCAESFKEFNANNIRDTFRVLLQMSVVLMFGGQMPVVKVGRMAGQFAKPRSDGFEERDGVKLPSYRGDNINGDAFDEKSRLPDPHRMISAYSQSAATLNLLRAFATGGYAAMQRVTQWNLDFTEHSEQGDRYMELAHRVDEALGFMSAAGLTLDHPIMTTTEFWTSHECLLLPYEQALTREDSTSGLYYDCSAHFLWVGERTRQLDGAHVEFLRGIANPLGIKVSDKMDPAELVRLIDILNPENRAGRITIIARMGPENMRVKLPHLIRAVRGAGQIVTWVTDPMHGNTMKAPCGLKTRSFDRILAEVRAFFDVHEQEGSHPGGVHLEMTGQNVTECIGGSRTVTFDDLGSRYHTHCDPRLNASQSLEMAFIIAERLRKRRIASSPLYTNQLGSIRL
Description: as §4

[12] = target: T2, Sorghum bicolor SbDHSnc, SEQ ID NO: 15, recombinant (Sorghum bicolor, UniProt C5WRG8); assay: DHS activity: effector inhibition; type: biochemical; conditions: effector 0.5 mM
T2 construct: synthesized into pET28a, E. coli KRX
T2 sequence (C5WRG8 36-499): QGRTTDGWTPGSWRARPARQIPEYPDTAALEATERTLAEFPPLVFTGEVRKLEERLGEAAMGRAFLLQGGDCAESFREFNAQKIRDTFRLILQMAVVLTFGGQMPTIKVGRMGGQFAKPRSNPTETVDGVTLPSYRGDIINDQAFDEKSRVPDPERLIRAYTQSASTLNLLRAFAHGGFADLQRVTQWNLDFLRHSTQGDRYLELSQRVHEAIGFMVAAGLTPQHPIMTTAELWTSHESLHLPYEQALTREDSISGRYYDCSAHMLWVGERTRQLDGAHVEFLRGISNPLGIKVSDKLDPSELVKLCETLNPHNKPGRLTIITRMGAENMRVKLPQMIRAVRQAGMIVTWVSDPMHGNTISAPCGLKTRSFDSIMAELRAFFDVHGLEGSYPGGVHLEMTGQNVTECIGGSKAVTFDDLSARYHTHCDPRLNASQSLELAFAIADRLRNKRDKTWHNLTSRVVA
Description: as §4

Chain of Brachypodium distachyon BdDHS1a, SEQ ID NO: 1, recombinant (I1GSB3 46-537): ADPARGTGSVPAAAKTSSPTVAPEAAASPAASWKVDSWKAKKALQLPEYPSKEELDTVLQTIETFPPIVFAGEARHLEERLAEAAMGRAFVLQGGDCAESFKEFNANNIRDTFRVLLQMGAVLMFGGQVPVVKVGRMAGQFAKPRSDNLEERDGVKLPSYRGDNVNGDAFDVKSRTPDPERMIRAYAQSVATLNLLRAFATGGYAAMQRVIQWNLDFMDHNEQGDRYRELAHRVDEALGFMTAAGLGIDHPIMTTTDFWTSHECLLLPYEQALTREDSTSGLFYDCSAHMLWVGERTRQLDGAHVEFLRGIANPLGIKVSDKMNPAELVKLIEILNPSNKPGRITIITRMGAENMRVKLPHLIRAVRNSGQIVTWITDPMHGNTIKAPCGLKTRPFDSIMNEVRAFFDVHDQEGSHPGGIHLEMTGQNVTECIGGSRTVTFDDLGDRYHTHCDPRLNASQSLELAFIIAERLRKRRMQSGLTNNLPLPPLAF

Compound: O=C[C@H](O)[C@H](O)COP(=O)(O)O [E4P, erythrose 4-phosphate]
- H Coefficient (only E4P) ([1]; 1.5 mM PEP): 1.8
- kcat/EC50 (E4P) [2]: 28300 M⁻¹ s⁻¹
- H Coefficient (only E4P) ([2]; 1.5 mM PEP): 2.1
- Km ([2]; 1.5 mM PEP, 37° C., read-out: EC50 (E4P) (K0.5)): 400 µM
- H Coefficient (only E4P) ([3]; 1.5 mM PEP): 1.5

Compound: OsDHS1b: DHS1b enzyme of Oryza sativa, SEQ ID NO: 19
- prephenate and arogenate relative to the control [4]: ~100 times
- effect on levels of aromatic amino acids and their precursor molecules [4]: increased levels of all measured metabolites except for tryptophan

Compound: O=C(O)Cc1cc(O)ccc1O [homogentisic acid]
- effect on grass DHS at 0.5 mM [5]: little effect

Compound: SbDHS1b: DHS1b enzyme of Sorghum bicolor, SEQ ID NO: 11
- effect on levels of aromatic amino acids and their precursor molecules [4]: little or no significant effect

Compound: BdDHS2: DHS2 enzyme of Brachypodium distachyon, SEQ ID NO: 5
- inhibition mechanism of arogenate for PEP [7]: mixed inhibition
- inhibition mechanism of arogenate in respect to E4P [7]: uncompetitive inhibition
- inhibition mechanism of tryptophan in respect to E4P [8]: uncompetitive inhibition
- impact of effector combinations on DHS activity [9]: additional inhibition
- phenylalanine accumulation compared to tdTomato control [10]: did not significantly alter
- shikimate accumulation compared to tdTomato control [10]: did not significantly alter
- tryptophan accumulation compared to tdTomato control [10]: did not significantly alter
- tyrosine accumulation compared to tdTomato control [10]: did not significantly alter

Compound: BdDHS1a: DHS1a enzyme of Brachypodium distachyon, SEQ ID NO: 1
- impact of effector combinations on DHS activity [9]: additional inhibition
- phenylalanine accumulation compared to tdTomato control [10]: did not significantly alter
- shikimate accumulation compared to tdTomato control [10]: did not significantly alter
- tryptophan accumulation compared to tdTomato control [10]: did not significantly alter
- tyrosine accumulation compared to tdTomato control [10]: did not significantly alter

Compound: N[C@@H](Cc1c[nH]c2ccccc12)C(=O)O [tryptophan]
- effect of tryptophan ([1]; 0.5 mM (FIG. 4C)): no effect
- IC50 ([1]; IC50 (tryptophan), 1.5 mM PEP, 2 mM E4P): > 500 µM
- effect of tryptophan ([2]; 0.5 mM (FIG. 4C)): no effect
- IC50 ([2]; read-out: IC50 (tryptophan)): > 500 µM
- IC50 ([3]; 1.5 mM PEP, 2 mM E4P, read-out: IC50 (tryptophan)): 120 µM
- mode of inhibition with respect to E4P ([3]; FIG. 18): uncompetitive inhibition kinetics
- mode of inhibition with respect to PEP ([3]; FIG. 18): non-competitive inhibition
- inhibition at 500 µM [11]: 40 to 50%
- inhibition at 500 µM [12]: 40 to 50%

The remaining lines, values ahead:

- effect on grass DHS at 0.5 mM [5]: little effect
Compound: O=C(O)/C=C/c1ccc(O)c(O)c1 [caffeic acid]

- inhibition at 0.5 mM [6]: no strong inhibition
- effect on grass DHS at 0.5 mM [5]: did not cause significant effects
Compound: N[C@@H](Cc1ccccc1)C(=O)O [phenylalanine]

- effect on grass DHS at 0.5 mM [5]: little effect
Compound: C=C(O[C@@H]1C=C(C(=O)O)C=C[C@H]1O)C(=O)O [chorismate]
